One compound from US20240117385A1, “ENZYMES OF LUCIFERIN BIOSYNTHESIS AND USE THEREOF” (LIGHT BIO, INC., priority 2018, published 2024) can be followed below.

The structures appear in SMILES notation.

Test [1] deals with Physcomitrella patens moss. In words: Bioluminescence of transgenic moss gametophytes soaked in hispidin. Format: in vivo. Particulars: hispidin 900 μg/ml in BCD medium. An excerpt: Coding sequences of Neonothopanus nambi hispidin hydroxylase and luciferase were optimized for expression in Physcomitrella patens moss cells. Then, in silico there was created an expression cassette comprising promoter of rice aktI gene, human cytomegalovirus 5′-untranslated region coding hispidin hydroxylase sequence optimized for expression in plant cells (SEQ ID NO 103), terminating codon, Agrobacterium osc gene terminator sequence, rice ubiquitin promoter, coding sequence of Neonothopanus nambi luciferase (SEQ ID NO 112) optimized for expression in moss cells, Agrobacterium tumefaciens nos gene terminator.
The obtained sequence was synthesized in such a way, that all said fragments appeared to be operatively cross-linked to each other, and cloned by Gibson assembly technique [Gibson et al., Nat Methods, 2009, 6:343-5] into expression vector pLand #1 (Institut Jean-Pierre Bourgin, France), between DNA fragments coincident with locus of Physcomitrella patens moss genomic DNA between sequences of highly expressed moss genes Pp3c16_6440 V3.1 and Pp3c16_6460 V3.1. The vector pLand #1 also comprised a guide RNA (sgRNA) sequence for Cas9 nuclease, complementary to the region of the same DNA locus. […]
The obtained moss gametophytes were soaked in BCD medium comprising hispidin at concentration of 900 μg/ml, and analyzed by means of IVIS Spectrum In Vivo Imaging System (Perkin Elmer).

Test [2] has as its system hispidin hydroxylase and luciferase fusion protein. In words: Bioluminescence of HEK293T cells expressing hispidin hydroxylase and luciferase fusion protein. Format: cell-based, Neonothopanus nambi. Particulars: 24 hours after transfection, 1 million of cells in 0.5 ml PBS; hispidin 10 μg per 1 million of cells. The text has this:
Humanized DNA sequences coding hispidin-hydroxylase and luciferase of Neonothopanus nambi, obtained according to Example 2, were operatively cross-linked to each other by flexible short peptide linker with amino acid sequence GGSGGSGGS (SEQ ID NOs:115). Nucleotide and amino acid sequences of the obtained fused protein are shown in SEQ ID NO 101 and 102. Nucleic acid coding fused protein was cloned into pEGFP-N1 vector (Clontech, USA) instead of EGFP gene under Cytomegaloviral promoter control. The obtained structure was transfected into HEK293T cells. Analogous vectors, comprising individual genes of hispidin hydroxylase and luciferase, were also co-transfected. Transfection was performed by transfection agent FuGENE HD (Promega, USA) according to the manufacturer's protocol. 24 hours after transfection 1 million of cells were resuspended in 0.5 ml of PBS, and luminescence without adding hispidin and with addition of hispidin (10 μg per 1 million of cells) was recorded by luminometer.

Take `O=c1cc(O)cc(/C=C/c2ccc(O)c(O)c2)o1` [hispidin, (E)-6-(3,4-dihydroxystyryl)-4-hydroxy-2H-pyran-2-one]: the “bioluminescence intensity exceeding the signal of control plants expressing luciferase only” value in test [1] is reported as “minimum by two orders of magnitude”. For the same compound, the “cell luminescence on addition” value in test [2] is listed as “caused cell luminescence in green spectrum”.
